From article PMC8589421, “Impact of Type II LRRK2 inhibitors on signaling and mitophagy” (Biochemical Journal, 2021) come the findings set out here.

For this test, the system named is LRRK2 Ser935, Ser910, Ser955 and Ser973. The experiment in a line: LRRK2 biomarker site phosphorylation in primary human neutrophils. It counts as cell-based. Particulars: up to 3 μM. The procedure: Cell extracts were mixed with a quarter of a volume of NuPage LDS Sample buffer 4× Invitrogen and heated at 95°C for 5 min. […] At the end of electrophoresis, proteins were electrophoretically transferred onto the nitrocellulose membrane (GE Healthcare, Amersham Protran Supported 0.45 µm NC) at 100 V for 90 min on ice in the transfer buffer (48 mM Tris–HCl and 39 mM glycine supplemented with 20% methanol). Transferred membrane was blocked with 5% (w/v) skim milk powder dissolved in TBS-T [20 mM Tris–HCl, pH 7.5, 150 mM NaCl and 0.1% (v/v) Tween 20] at room temperature for 1 h. The membrane was typically cropped into three pieces, namely the ‘top piece’ (from the top of the membrane to 75 kDa), the ‘middle piece’ (between 75 and 30 kDa) and the ‘bottom piece’ (from 30 kDa to the bottom of the membrane). All primary antibodies were used at 1 μg/ml final concentration and incubated in TBS-T containing 5% (by mass) bovine serum albumin with exception of α-tubulin and GAPDH antibodies that were diluted 1 : 5000 and 1 : 2000, respectively. The top piece was incubated with the indicated rabbit anti-LRRK2 phosphorylation site antibody multiplexed with mouse anti-LRRK2 C-terminus total antibody. […] Protein bands were acquired via near infrared fluorescent detection using the Odyssey CLx imaging system and quantified using the Image Studio software. […]

On to `Cc1ccc(C(=O)Nc2ccc(CN3CCN(C)CC3)c(C(F)(F)F)c2)cc1C#Cc1cnc2[nH]ncc2c1` [GZD-824], for which the “phosphorylation of Ser935, Ser910, Ser955 and Ser973” value is reported as “unaffected”.
